Measurements: US9777017B2, “Tricyclic fused thiophene derivatives as JAK inhibitors” (Incyte Corporation, priority 2012, dated 2017)

Assays:
Assay type in all cases: biochemical
human JAK2 = human JAK2 (Homo sapiens (Human), UniProt O60674); test: In vitro JAK kinase assay (HTRF, phosphorylation of a biotinylated peptide), JAK2; set-up: key to JAK2 IC50 (nM): +indicates an IC50 of ≦100 nM; ++indicates an IC50 of ≦1000 nM; +++indicates an IC50 of ≦2000 nM; ++++indicates an IC50 of >2000 nM; +++++indicates that the IC50 was greater than the highest concentration tested; settings: 1 mM ATP
human JAK2, sequence (O60674 828-1132): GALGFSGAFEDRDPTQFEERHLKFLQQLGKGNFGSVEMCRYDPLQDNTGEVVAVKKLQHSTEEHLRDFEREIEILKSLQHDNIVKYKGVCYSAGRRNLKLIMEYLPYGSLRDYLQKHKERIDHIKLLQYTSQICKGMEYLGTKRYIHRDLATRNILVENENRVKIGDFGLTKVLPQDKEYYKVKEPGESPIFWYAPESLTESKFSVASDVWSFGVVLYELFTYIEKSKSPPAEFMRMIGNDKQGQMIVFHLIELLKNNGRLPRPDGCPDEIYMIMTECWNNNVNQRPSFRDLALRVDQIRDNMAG
How it was run: (§1)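 Baculovirus-expressed catalytic domains (JAK1 a.a. 837-1142, JAK2 a.a. 828-1132) phosphorylate 500 nM biotinylated peptide at 1 mM ATP, Tris pH 7.8, 1 h at room temperature. EDTA stop and HTRF detection with Eu-Py20/SA-APC; IC50 values derived.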

human JAK1 [1] = test: In vitro JAK kinase assay (HTRF, phosphorylation of a biotinylated peptide), JAK1; settings: ratio of IC50s, 1 mM ATP
How it was run: as §1

human JAK1 [2] = molecular target: human JAK1 (Homo sapiens, UniProt P23458); test: as above; settings: 1 mM ATP
How it was run: as §1

SMILES | JAK2 IC50 (nM) (human JAK2) | JAK2/JAK1 (human JAK1 [1]) | IC50 (human JAK1 [2]) | IC50 (human JAK2)
C[C@@H](O)c1nc2cnc3ccsc3c2n1C1CCN(CCCC(F)(F)F)CC1 [Example 60, (1R)-1-{1-[1-(4,4,4-Trifluorobutyl)piperidin-4-yl]-1H-imidazo[4,5-d]thieno[3,2-b]pyridin-2-yl}ethanol] | +++++ | >10 | ≤ 1000 nM | 
C[C@@H](O)c1nc2cnc3ccsc3c2n1C1CCN(CC#N)CC1.O=C(O)C(F)(F)F [Example 61, (4-{2-[(1R)-1-Hydroxyethyl]-1H-imidazo[4,5-d]thieno[3,2-b]pyridin-1-yl}piperidin-1-yl)acetonitrile trifluoroacetate] | +++++ | >10 | ≤ 1000 nM | 
C[C@@H](O)c1nc2cnc3ccsc3c2n1[C@H]1CCN(CCC#N)C1 [Example 62, 3-((3S)-3-{2-[(1R)-1-Hydroxyethyl]-1H-imidazo[4,5-d]thieno[3,2-b]pyridin-1-yl}pyrrolidin-1-yl)propanenitrile] |  | >10 | ≤ 1000 nM | > 2000 nM
C[C@@H](O)c1nc2cnc3ccsc3c2n1[C@H]1CCN(CCCCC#N)C1 [Example 66, 5-((3S)-3-{2-[(1R)-1-Hydroxyethyl]-1H-imidazo[4,5-d]thieno[3,2-b]pyridin-1-yl}pyrrolidin-1-yl)pentanenitrile] | +++++ | >10 | ≤ 1000 nM | 
C[C@@H](O)c1nc2cnc3ccsc3c2n1[C@H]1CC[C@H](CC#N)[C@H](N)C1 [Example 67, ((1R,2R,4S)-2-Amino-4-{2-[(1R)-1-hydroxyethyl]-1H-imidazo[4,5-d]thieno[3,2-b]pyridin-1-yl}cyclohexyl)acetonitrile] |  | >10 | ≤ 1000 nM | > 2000 nM
CC(N)c1nc2cnc3ccsc3c2n1[C@H]1CC[C@H](CC#N)OC1.O=C(O)C(F)(F)F (stereo partly drawn) [Example 68, {(2R,5S)-5-[2-(1-Aminoethyl)-1H-imidazo[4,5-d]thieno[3,2-b]pyridin-1-yl]tetrahydro-2H-pyran-2-yl}acetonitrile trifluoroacetate] |  | >10 | ≤ 100 nM | ≤ 2000 nM
CC(=O)NC(C)c1nc2cnc3ccsc3c2n1[C@H]1CC[C@H](CC#N)OC1 (stereo partly drawn) [Example 69, N-(1-{1-[(3S,6R)-6-(Cyanomethyl)tetrahydro-2H-pyran-3-yl]-1H-imidazo[4,5-d]thieno[3,2-b]pyridin-2-yl}ethyl)acetamide] | +++++ | >10 | ≤ 1000 nM | 
CNC(C)c1nc2cnc3ccsc3c2n1[C@H]1CC[C@H](CC#N)OC1 (stereo partly drawn) [Example 70, ((2R,5S)-5-{2-[1-(Methylamino)ethyl]-1H-imidazo[4,5-d]thieno[3,2-b]pyridin-1-yl}tetrahydro-2H-pyran-2-yl)acetonitrile] |  | >10 | ≤ 1000 nM | > 2000 nM
N#CCc1nc2cnc3ccsc3c2n1[C@H]1CC[C@H](CC#N)OC1 [Example 73, {(2R,5S)-5-[2-(Cyanomethyl)-1H-imidazo[4,5-d]thieno[3,2-b]pyridin-1-yl]tetrahydro-2H-pyran-2-yl}acetonitrile] |  | >10 | ≤ 100 nM | ≤ 1000 nM
C[C@@H](O)c1nc2cnc3ccsc3c2n1[C@H]1CC[C@H](CNS(C)(=O)=O)OC1 [Example 75, N-[((2R,5S)-5-{2-[(1R)-1-Hydroxyethyl]-1H-imidazo[4,5-d]thieno[3,2-b]pyridin-1-yl}tetrahydro-2H-pyran-2-yl)methyl]methanesulfonamide] |  | >10 | ≤ 100 nM | ≤ 2000 nM
CC(C)OC(=O)NC[C@H]1CC[C@H](n2c([C@@H](C)O)nc3cnc4ccsc4c32)CO1 [Example 76, Isopropyl [((2R,5S)-5-{2-[(1R)-1-hydroxyethyl]-1H-imidazo[4,5-d]thieno[3,2-b]pyridin-1-yl}tetrahydro-2H-pyran-2-yl)methyl]carbamate] |  | >10 | ≤ 100 nM | ≤ 2000 nM
COC(=O)NC[C@H]1CC[C@H](n2c([C@@H](C)O)nc3cnc4ccsc4c32)CC1 [Example 78, Methyl [(trans-4-{2-[(1R)-1-hydroxyethyl]-1H-imidazo[4,5-d]thieno[3,2-b]pyridin-1-yl}cyclohexyl)methyl]carbamate] |  | >10 | ≤ 100 nM | ≤ 1000 nM
CC(=O)NC[C@H]1CC[C@H](n2c([C@@H](C)O)nc3cnc4ccsc4c32)CC1 [Example 79, N-[(trans-4-{2-[(1R)-1-Hydroxyethyl]-1H-imidazo[4,5-b]thieno[3,2-b]pyridin-1-yl}cyclohexyl)methyl]acetamide] |  | >10 | ≤ 100 nM | ≤ 2000 nM
C[C@@H](O)c1nc2cnc3ccsc3c2n1[C@H]1CC[C@H](CNS(C)(=O)=O)CC1 [Example 80, N-[(trans-4-{2-[(1R)-1-Hydroxyethyl]-1H-imidazo[4,5-d]thieno[3,2-b]pyridin-1-yl}cyclohexyl)methyl]methanesulfonamide] |  | >10 | ≤ 100 nM | ≤ 2000 nM
C[C@@H](O)c1nc2cnc3ccsc3c2n1[C@H]1CC[C@H](CNC(=O)N(C)C)CC1 [Example 81, N′-[(trans-4-{2-[(1R)-1-Hydroxyethyl]-1H-imidazo[4,5-d]thieno[3,2-b]pyridin-1-yl}cyclohexyl)methyl]-N,N-dimethylurea] |  | >10 | ≤ 100 nM | > 2000 nM
CCOC(=O)NC[C@H]1CC[C@H](n2c([C@@H](C)O)nc3cnc4ccsc4c32)CC1 [Example 82, Ethyl [(trans-4-{2-[(1R)-1-hydroxyethyl]-1H-imidazo[4,5-d]thieno[3,2-b]pyridin-1-yl}cyclohexyl)methyl]carbamate] |  | >10 | ≤ 100 nM | ≤ 1000 nM
CC(C)OC(=O)NC[C@H]1CC[C@H](n2c([C@@H](C)O)nc3cnc4ccsc4c32)CC1 [Example 84, Isopropyl [(trans-4-{2-[(1R)-1-hydroxyethyl]-1H-imidazo[4,5-d]thieno[3,2-b]pyridin-1-yl}cyclohexyl)methyl]carbamate] |  | >10 | ≤ 100 nM | ≤ 1000 nM
COC(=O)NC[C@H]1CC[C@H](n2c(CC#N)nc3cnc4ccsc4c32)CC1 [Example 86, Methyl ({trans-4-[2-(cyanomethyl)-1H-imidazo[4,5-d]thieno[3,2-b]pyridin-1-yl]cyclohexyl}methyl)carbamate] |  | >10 | ≤ 100 nM | ≤ 1000 nM

Continued, values first:

JAK2 IC50 (nM) (human JAK2) | JAK2/JAK1 (human JAK1 [1]) | IC50 (human JAK1 [2]) | IC50 (human JAK2) | SMILES
+++++ | >6 | ≤ 2000 nM |  | C[C@@H](O)c1nc2cnc3ccsc3c2n1[C@H]1CCN(C(=O)CC#N)C1 [Example 63, 3-((3S)-3-{2-[(1R)-1-Hydroxyethyl]-1H-imidazo[4,5-d]thieno[3,2-b]pyridin-1-yl}pyrrolidin-1-yl)-3-oxopropanenitrile]
+++++ | >10 | ≤ 100 nM |  | C[C@@H](O)c1nc2cnc3ccsc3c2n1[C@H]1CCN(CCCC(F)(F)F)C1 [Example 64, (1R)-1-{1-[(3S)-1-(4,4,4-Trifluorobutyl)pyrrolidin-3-yl]-1H-imidazo[4,5-d]thieno[3,2-b]pyridin-2-yl}ethanol]
+++++ | >10 | ≤ 1000 nM |  | C[C@@H](O)c1nc2cnc3ccsc3c2n1[C@H]1CCN(CCCC#N)C1 [Example 65, 4-((3S)-3-{2-[(1R)-1-Hydroxyethyl]-1H-imidazo[4,5-d]thieno[3,2-b]pyridin-1-yl}pyrrolidin-1-yl)butanenitrile]
 | >10 | ≤ 100 nM | ≤ 1000 nM | CC(F)c1nc2cnc3ccsc3c2n1[C@H]1CC[C@H](CC#N)OC1 (stereo partly drawn) [Example 71, {(2R,5S)-5-[2-(1-Fluoroethyl)-1H-imidazo[4,5-d]thieno[3,2-b]pyridin-1-yl]tetrahydro-2H-pyran-2-yl}acetonitrile]
+++++ | >10 | ≤ 1000 nM |  | N#CCc1nc2cnc3ccsc3c2n1[C@H]1CC[C@@H](CC#N)OC1 [Example 74, {(2S,5S)-5-[2-(Cyanomethyl)-1H-imidazo[4,5-d]thieno[3,2-b]pyridin-1-yl]tetrahydro-2H-pyran-2-yl}acetonitrile]
 | >10 | ≤ 100 nM | ≤ 1000 nM | CCCOC(=O)NC[C@H]1CC[C@H](n2c([C@@H](C)O)nc3cnc4ccsc4c32)CC1 [Example 83, Propyl [(trans-4-{2-[(1R)-1-hydroxyethyl]-1H-imidazo[4,5-d]thieno[3,2-b]pyridin-1-yl}cyclohexyl)methyl]carbamate]
+++++ | >10 | ≤ 100 nM |  | C[C@@H](O)c1nc2cnc3ccsc3c2n1[C@H]1CC[C@H](CNC(=O)OC2CCOC2)CC1 (stereo partly drawn) [Example 85, Tetrahydrofuran-3-yl [(trans-4-{2-[(1R)-1-hydroxyethyl]-1H-imidazo[4,5-d]thieno[3,2-b]pyridin-1-yl}cyclohexyl)methyl]carbamate]
 | >10 | ≤ 100 nM | ≤ 1000 nM | CCOC(=O)NC[C@H]1CC[C@H](n2c(CC#N)nc3cnc4ccsc4c32)CC1 [Example 87, Ethyl ({trans-4-[2-(cyanomethyl)-1H-imidazo[4,5-d]thieno[3,2-b]pyridin-1-yl]cyclohexyl}methyl)carbamate]
